Reference: patent US20220039384A1, “SELECTIVE WEED CONTROL WITH HALAUXIFEN OR 4-AMINO-3-CHLORO-5-FLUORO-6-(4-CHLORO-2-FLUORO-3-METHOXYPHENYL) PYRIDINE-2-CARBOXYLIC ACID OR DERIVATIVES THEREOF IN VINEYARDS OR PERENNIAL CROPS” (Corteva Agriscience LLC, priority 2013, published 2022)

Assays:
Assay type in all cases: in vivo
[1] = system: AMSIN (Amsinckia intermedia, coast fiddleneck); assay: Field trial, pre-emergence application (February), California vineyards: visual weed control
Source text: (§1) As used herein, selective pre- and post-emergence control of undesirable vegetation means preventing, reducing, killing, or otherwise adversely modifying the development of the undesirable vegetation in the presence of crop plants with limited adverse effect on the crop plants. For example, a broadleaf weed control of 80% (rated visually) with crop injury of less than or equal to 20% (rated visually) would constitute selective control. In some embodiments the adverse effect on crop plants is limited to less than 10% visually rated crop injury. Visual crop injury is a composite rating accounting for all phytotoxic effects including chlorosis, necrosis, growth inhibition, epinasty, delays in maturity and seed or fruit deformity. Visual weed control is a composite rating accounting for reductions in pest plant biomass and/or stand reduction.
(§2) Small plot research experiments were conducted in Fresno, Calif., USA to evaluate the pre-emergence and post-emergence herbicidal weed control activity and the vines crop tolerance to pre-emergence and post-emergence application of Compound I and Compound II to the weeds. Application water volume of 100 to 187 liters per hectare (L/ha) was used for all experiments. All treatments were applied with a standard small plot carbon dioxide (CO2) backpack sprayer. All treatments were tank-mixed with Crop Oil Concentrate (COC), a well known adjuvant, at 2.34 L/ha. Experimental emulsifiable concentrate (EC) formulations were used for Compounds I and II. The dimethylammonium (DMA) salt of glyphosate was used in all trials. Pindar® GT is a commercial formulation containing a pre-mix of penoxsulam+oxyfluorfen (10+476 grams of active ingredient per liter (g ai/L), respectively). Vine crop stage was dormant (no leaves on the vines during the winter) or early spring growth at the time of Compound I or Compound II application. Generally, weeds were not emerged for the pre-emergence treatments or were at the two to six-leaf stage at the time of the post-emergence herbicide application.
(§3) Tables 1, 2 and 6 provide weed control results from pre-emergence applications of Compounds I and/or II prior to weed emergence; Tables 4, 7 and 8 provide weed control results from post-emergence applications of Compounds I and/or II applied to actively growing weeds; Tables 3 and 5 provide vine response data from pre-emergence and post-emergence applications of Compound I respectively.

[2] = system: CLNCM (Calandrinia ciliata, rock purslane); assay: as above
Source text: as §1, §2, §3

[3] = system: CAPBP (Capsella bursa-pastoris, Shepherd's purse); assay: as above
Source text: as §1, §2, §3

VITSS (Vitis spp, grape) = assay: Field trial, soil-applied dormant application (December), California vineyards: vine injury and growth response; details: applied to the soil
Source text: as §1, §2, §3

[4] = system: ERIBO (Conyza bonariensis, hairy fleabane); assay: Field trial, post-emergence directed spring application (April), California vineyards: visual weed control
Source text: as §1, §2, §3

[5] = system: SETFA (Setaria faberi, giant foxtail); assay: as above
Source text: as §1, §2, §3

[6] = system: MALPA (Malva parviflora, smallflower malva); assay: as above
Source text: as §1, §2, §3

[7] = system: EROCI (Erodium cicutarium, redstem filaree); assay: as above
Source text: as §1, §2, §3

[8] = system: AGRRE (Agropyron repens, quackgrass); assay: as above
Source text: as §1, §2, §3

[9] = system: PANCA (Panicum capillare, witchgrass); assay: as above
Source text: as §1, §2, §3

[10] = system: CAPBP (Capsella bursa-pastoris, Shepherd's purse); assay: Field trial, pre-emergence dormant application (December), California vineyards: visual weed control; details: applied prior to weed emergence
Source text: as §1, §2, §3

[11] = system: ERICA (Conyza canadensis, horseweed); assay: as above; details: applied prior to weed emergence
Source text: as §1, §2, §3

[12] = system: MALPA (Malva parviflora, smallflower malva); assay: as above; details: applied prior to weed emergence
Source text: as §1, §2, §3

[13] = system: EROCI (Erodium cicutarium, redstem filaree); assay: as above; details: applied prior to weed emergence
Source text: as §1, §2, §3

[14] = system: MEDPO (Medicago polymorpha, California burclover); assay: Field trial, post-emergence directed spring application (March), California vineyards: visual weed control
Source text: as §1, §2, §3

[15] = system: STEME (Stellaria media, common chickweed); assay: as above
Source text: as §1, §2, §3

[16] = system: MALPA (Malva parviflora, smallflower malva); assay: as above
Source text: as §1, §2, §3

[17] = system: EROCI (Erodium cicutarium, redstem filaree); assay: as above
Source text: as §1, §2, §3

Structure (SMILES): COC(=O)c1nc(-c2ccc(Cl)c(OC)c2F)cc(N)c1Cl [I—Me, methyl 4-amino-3-chloro-6-(4-chloro-2-fluoro-3-methoxyphenyl)pyridine-2-carboxylate]
- % Visual Control 48 DAA AMSIN ([1]; 2.5 g ae/ha): 25%
- % Visual Control 48 DAA AMSIN ([1]; 5 g ae/ha): 43.3%
- % Visual Control 48 DAA AMSIN ([1]; 10 g ae/ha): 36.7%
- % Visual Control 48 DAA CLNCM ([2]; 2.5 g ae/ha): 27.6%
- % Visual Control 48 DAA CLNCM ([2]; 5 g ae/ha): 43.3%
- % Visual Control 48 DAA CLNCM ([2]; 10 g ae/ha): 86.7%
- % Visual Control 48 DAA CAPBP ([3]; 2.5 g ae/ha): 50%
- % Visual Control 48 DAA CAPBP ([3]; 5 g ae/ha): 76.7%
- % Visual Control 48 DAA CAPBP ([3]; 10 g ae/ha): 90%
- VITSS % Visual Injury 124 DAA (VITSS (Vitis spp, grape); 10 g ae/ha): 0%
- VITSS % Visual Injury 184 DAA (VITSS (Vitis spp, grape); 10 g ae/ha): 15%
- VITSS Branch Length (cm) 184 DAA (VITSS (Vitis spp, grape); 10 g ae/ha): 187 cm
- VITSS Internode Length (cm) 184 DAA (VITSS (Vitis spp, grape); 10 g ae/ha): 7 cm
- VITSS Yield (Lbs) 236 DAA (VITSS (Vitis spp, grape); 10 g ae/ha): 71 Lbs
- VITSS % Visual Injury 124 DAA (VITSS (Vitis spp, grape); 20 g ae/ha): 0%
- VITSS % Visual Injury 184 DAA (VITSS (Vitis spp, grape); 20 g ae/ha): 18%
- VITSS Branch Length (cm) 184 DAA (VITSS (Vitis spp, grape); 20 g ae/ha): 172 cm
- VITSS Internode Length (cm) 184 DAA (VITSS (Vitis spp, grape); 20 g ae/ha): 7 cm
- VITSS Yield (Lbs) 236 DAA (VITSS (Vitis spp, grape); 20 g ae/ha): 63 Lbs
- VITSS % Visual Injury 124 DAA (VITSS (Vitis spp, grape); 40 g ae/ha): 0%
- VITSS % Visual Injury 184 DAA (VITSS (Vitis spp, grape); 40 g ae/ha): 37%
- VITSS Branch Length (cm) 184 DAA (VITSS (Vitis spp, grape); 40 g ae/ha): 125 cm
- VITSS Internode Length (cm) 184 DAA (VITSS (Vitis spp, grape); 40 g ae/ha): 6 cm
- VITSS Yield (Lbs) 236 DAA (VITSS (Vitis spp, grape); 40 g ae/ha): 31 Lbs
- % Visual Control 60 DAA ERIBO ([4]; 5 g ae/ha): 97%
- % Visual Control 60 DAA ERIBO ([4]; 10 g ae/ha): 95%
- % Visual Control 60 DAA ERIBO ([4]; 20 g ae/ha): 93%
- % Visual Control 60 DAA SETFA ([5]; 5 g ae/ha): 98%
- % Visual Control 60 DAA SETFA ([5]; 10 g ae/ha): 80%
- % Visual Control 60 DAA SETFA ([5]; 20 g ae/ha): 97%
- % Visual Control 60 DAA MALPA ([6]; 5 g ae/ha): 75%
- % Visual Control 60 DAA MALPA ([6]; 10 g ae/ha): 72%
- % Visual Control 60 DAA MALPA ([6]; 20 g ae/ha): 73%
- % Visual Control 60 DAA EROCI ([7]; 5 g ae/ha): 62%
- % Visual Control 60 DAA EROCI ([7]; 10 g ae/ha): 70%
- % Visual Control 60 DAA EROCI ([7]; 20 g ae/ha): 86%
- % Visual Control 60 DAA AGRRE ([8]; 5 g ae/ha): 87%
- % Visual Control 60 DAA AGRRE ([8]; 10 g ae/ha): 80%
- % Visual Control 60 DAA AGRRE ([8]; 20 g ae/ha): 83%
- % Visual Control 60 DAA PANCA ([9]; 5 g ae/ha): 82%
- % Visual Control 60 DAA PANCA ([9]; 10 g ae/ha): 88%
- % Visual Control 60 DAA PANCA ([9]; 20 g ae/ha): 86%
- % Visual Control 90 DAA CAPBP ([10]; 10 g ae/ha): 62%
- % Visual Control 90 DAA CAPBP ([10]; 20 g ae/ha): 58%
- % Visual Control 90 DAA CAPBP ([10]; 40 g ae/ha): 82%
- % Visual Control 90 DAA ERICA ([11]; 10 g ae/ha): 75%
- % Visual Control 184 DAA ERICA ([11]; 10 g ae/ha): 92%
- % Visual Control 90 DAA ERICA ([11]; 20 g ae/ha): 100%
- % Visual Control 184 DAA ERICA ([11]; 20 g ae/ha): 97%
- % Visual Control 90 DAA ERICA ([11]; 40 g ae/ha): 100%
- % Visual Control 184 DAA ERICA ([11]; 40 g ae/ha): 100%
- % Visual Control 90 DAA MALPA ([12]; 10 g ae/ha): 85%
- % Visual Control 184 DAA MALPA ([12]; 10 g ae/ha): 45%
- % Visual Control 90 DAA MALPA ([12]; 20 g ae/ha): 88%
- % Visual Control 184 DAA MALPA ([12]; 20 g ae/ha): 60%
- % Visual Control 90 DAA MALPA ([12]; 40 g ae/ha): 89%
- % Visual Control 184 DAA MALPA ([12]; 40 g ae/ha): 47%
- % Visual Control 90 DAA EROCI ([13]; 10 g ae/ha): 58%
- % Visual Control 184 DAA EROCI ([13]; 10 g ae/ha): 47%
- % Visual Control 90 DAA EROCI ([13]; 20 g ae/ha): 72%
- % Visual Control 184 DAA EROCI ([13]; 20 g ae/ha): 52%
- % Visual Control 90 DAA EROCI ([13]; 40 g ae/ha): 82%
- % Visual Control 184 DAA EROCI ([13]; 40 g ae/ha): 55%
- % Visual Control 59 DAA MEDPO ([14]; 2.5 g ae/ha): 100%
- % Visual Control 59 DAA MEDPO ([14]; 5 g ae/ha): 100%
- % Visual Control 59 DAA MEDPO ([14]; 10 g ae/ha): 100%
- % Visual Control 59 DAA STEME ([15]; 2.5 g ae/ha): 46.7%
- % Visual Control 59 DAA STEME ([15]; 5 g ae/ha): 94%
- % Visual Control 59 DAA STEME ([15]; 10 g ae/ha): 95.7%
- % Visual Control 59 DAA MALPA ([16]; 2.5 g ae/ha): 80%
- % Visual Control 59 DAA MALPA ([16]; 5 g ae/ha): 90%
- % Visual Control 59 DAA MALPA ([16]; 10 g ae/ha): 96.7%
- % Visual Control 59 DAA EROCI ([17]; 2.5 g ae/ha): 43.3%
- % Visual Control 59 DAA EROCI ([17]; 5 g ae/ha): 89.7%
- % Visual Control 59 DAA EROCI ([17]; 10 g ae/ha): 94%
